Data on 8 molecules can be found in article PMC10525135, “Computationally Designed AMPs with Antibacterial and Antibiofilm Activity against MDR Acinetobacter baumannii” (Antibiotics, 2023).

Values after ≈ are worked out from the molar mass of the structure shown. Read-outs that look alike come from different tables or passages of the source. Marks after values point to notes of the source that are not given here. Residues, ends and D or L forms follow the SMILES beside them. No end group written: not given here.

Data set [1] relates to defibrinated human red blood cells. Kind of data set: Hemolysis. Format: cell-based. The settings on record: 2% hRBC in PBS, 1 h 37 °C, OD540, relative to Triton X-100, n = 3. As for the experimental part:
To measure the hemolytic activity of peptides, 2% human red blood cells were added to various dilutions of peptide reconstituted in PBS in a sterile U-bottom polypropylene 96-well plate following a protocol developed in our laboratory Briefly, defibrinated human blood was obtained from de-identified healthy donors from BioIVT (Westbury, NY, USA). An aliquot (1 mL) of blood was centrifuged at 1600× g for 10 min and plasma was discarded, and then 1 mL of sterile 1× PBS (HyClone) was used to wash red blood cells at least three times. In the last wash step, the supernatant was discarded, and the pallet was resuspended with 750 µL of sterile PBS. RBC suspension (2% RBC) was prepared by adding 200 µL of washed RBCs to 9.8 mL of sterile 1× PBS. A total of 50 µL of 2% RBCs were added to each well (n = 3) containing diluted peptides, resulting in a final peptide concentration of 100, 10, and 1 μg/mL. A total of 2% RBCs with 1× PBS alone served as the negative control (no peptide), and 2% RBC in Triton X-100 served as the positive control. The plate was incubated for 1 h at 37 °C and then centrifuged at 1000 rpm for 2 min. The supernatant was transferred to a fresh 96-well plate (tissue culture-treated Falcon 353072) and read at OD540. The percentage of hemolysis was calculated based on the 100% hemolysis control (Triton X-100). The experiment was repeated twice.

For data set [2], the system named is A. baumannii BAA-1800 biofilm. As for the experimental part: The MBIC assay measures the lowest concentration of a compound that inhibits the biofilm formation of an organism. A series of decreasing peptide concentrations starting from 64 μg/mL to 0.25 μg/mL (100 µL) were incubated with 1 × 10^5 CFU of A. baumannii in 100 µL of Tryptic Soy broth (TSB) in a polystyrene 96-well plate (Falcon 353072, Corning, NY, USA) for 24 h at 37 °C to assess biofilm formation inhibition, as described previously with minor modifications. After the incubation of bacteria with AMPs, OD600 nm was measured for approximate bacterial growth. Media were carefully removed, and wells (n = 3) were rinsed with tap water. Plates were heat-fixed at 70 °C for 1 h, and 200 µL of 0.1% crystal violet diluted in deionized water were added to wells and allowed to incubate for 15 min. Excess stain was rinsed off with tap water, and the plates were air-dried. After that, 200 µL of 33% glacial acetic acid was added to resolubilize the stain, and biofilm mass was measured by a spectrophotometric reading at OD590. Bacteria alone (no treatment) served as the 100% biofilm control, and media alone and media with a peptide/drug were used as the sterility control and the 0% biofilm control.

For data set [3], the system named is AB5075 pre-formed (24 h) biofilm. Type of data set: cell-based, Acinetobacter baumannii. As to the method: The MBEC assay measures the lowest concentration of an antimicrobial agent that can eradicate established biofilms. Using the MBEC assay in the Biofilm Inoculator 96-well base (Innovotech Cat #1911, Edmonton, AB, Canada) and following the manufacturer’s protocol, 150 µL (n = 6) of 1 × 10^6 CFU/mL of AB5075 in TSB was incubated for 24 h at 37 °C at 110 rpm for biofilm formation. The lid containing pegs was rinsed with sterile PBS for 5 min, and then the lid was placed in a peptide challenge polypropylene 96-well plate containing a decreasing series of drug concentrations and incubated for 24 h at 37 °C at 110 rpm. Pegs were washed three times with tap water, heat-fixed for 70 °C for 1 h, and stained with 0.1% crystal violet for 15 min. Excess stain was rinsed off with tap water and allowed to dry. Stained pegs were resolubilized with 200 µL of 33% glacial acetic acid. OD590 was obtained to measure the remaining biofilm. Pegs with only bacteria served as the growth control and 100% biofilm control. Media alone and media with a peptide/drug served as the sterility controls. […] The experiment was performed twice.

Data set [4] deals with A. baumannii BAA-1794. Format: cell-based, Acinetobacter baumannii. As for the experimental part:
(§1) Minimum inhibitory concentration (n = 3) was performed according to the CLSI protocols with a minor modification, in which Difco Mueller Hinton broth (BD 275730, Franklin Lakes, NJ, USA) was used instead of cation-adjusted Mueller Hinton broth following Wiegand et al.’s standardized protocol for testing AMPs. Bacteria were grown overnight in an opaque colony, and the concentration was determined using McFarland’s technique. An aliquot of 50 µL of 1 × 10^6 CFU/mL of bacteria was incubated with a decreasing series of peptide concentration to achieve a final bacterial concentration of 5 × 10^5 CFU/mL at 37 °C 5% CO2 for 20–24 h in Difco Mueller Hinton broth. Dilutions were performed in a 96-well polypropylene plate (Corning 3879, Corning, NY, USA). This is critical to avoid peptide binding to the plate. Results were obtained by measuring bacterial growth at OD600 nm. LL-37 and polymyxin B were used as positive controls. Samples containing only the medium and medium with peptides were used as the sterility controls and samples containing only bacteria in MHB served as the growth control. Each experiment was performed twice, and one representative experiment is shown.

For data set [5], the system named is A. baumannii BAA-1710. Format: cell-based, Acinetobacter baumannii. As for the experimental part:
as §1

For data set [6], the system named is A. baumannii strains AB5075, BAA-1710, -1794, and -1800. Format: cell-based, Acinetobacter baumannii. As for the experimental part:
as §1

The test system of data set [7] is AB5075. As for the experimental part: Bacteria were grown in 1 mL of MHB for 24 h. Experimental tubes that show growth in the presence of peptide/drug concentration were diluted 1:100. […] Colistin is reported to induce resistance within approximately 5–7 days for A. baumannii.
The test system of data set [8] is A. baumannii AB5075 (MRSN959). Format: cell-based, Acinetobacter baumannii. As to the method:
as §1

The test system of data set [9] is A. baumannii BAA-1800. Format: cell-based, Acinetobacter baumannii. As for the experimental part: as §1
[10] abbreviates: A. baumannii BAA-1800, TSB, 24 h 37 °C, crystal violet.
Setting [11] is: A. baumannii BAA-1800, TSB, polystyrene plate, 24 h 37 °C, crystal violet OD590, n = 3.
[12] abbreviates: MBEC100, AB5075 24 h pre-formed biofilm on pegs, 24 h challenge, crystal violet OD590, n = 6.
Where [13] appears, read: A. baumannii BAA-1794, Difco Mueller Hinton broth, 5 × 10^5 CFU/mL, 37 °C 5% CO2, 20–24 h, OD600, n = 3.
The mark [14] stands for this setting: A. baumannii BAA-1710, Difco Mueller Hinton broth, 5 × 10^5 CFU/mL, 37 °C 5% CO2, 20–24 h, OD600, n = 3.
The mark [15] stands for this setting: summary over MDR A. baumannii strains of Table 3.
Where [16] appears, read: AB5075 passaged with subinhibitory drug.

Regarding `CC[C@H](C)[C@H](NC(=O)[C@H](CCCCN)NC(=O)[C@H](CCC(=O)O)NC(=O)[C@H](CCCCN)NC(=O)[C@H](CO)NC(=O)[C@H](CCCCN)NC(=O)[C@H](CCCNC(=N)N)NC(=O)[C@H](Cc1ccccc1)NC(=O)[C@H](Cc1ccccc1)NC(=O)[C@H](CC(=O)O)NC(=O)CNC(=O)[C@H](CC(C)C)NC(=O)[C@@H](N)CC(C)C)C(=O)NCC(=O)N[C@@H](CCCCN)C(=O)N[C@@H](CCC(=O)O)C(=O)N[C@@H](Cc1ccccc1)C(=O)N[C@@H](CCCCN)C(=O)N[C@@H](CCCNC(=N)N)C(=O)N[C@H](C(=O)N[C@H](C(=O)N[C@@H](CCC(N)=O)C(=O)N[C@@H](CCCNC(=N)N)C(=O)N[C@H](C(=O)N[C@@H](CCCCN)C(=O)N[C@@H](CC(=O)O)C(=O)N[C@@H](Cc1ccccc1)C(=O)N[C@@H](CC(C)C)C(=O)N[C@@H](CCCNC(=N)N)C(=O)N[C@@H](CC(N)=O)C(=O)N[C@@H](CC(C)C)C(=O)N[C@H](C(=O)N1CCC[C@H]1C(=O)N[C@@H](CCCNC(=N)N)C(=O)N[C@H](C(=O)N[C@@H](CCC(=O)O)C(=O)N[C@@H](CO)C(=O)O)[C@@H](C)O)C(C)C)[C@@H](C)CC)C(C)C)[C@@H](C)CC` [LL-37], the Hemolysis in data set [1] (10 µg/mL) turned out to be 5.4%; in data set [1] (100 µg/mL), 22%. Also, the MBIC50 in data set [2] (setting [10]) is reported as ~ 32 µg/mL. In data set [2] (setting [11]), this molecule registered an MBIC100 of 64 µg/mL. Also, the MBEC50 in data set [3] (AB5075 24 h pre-formed biofilm, crystal violet) worked out at 4 µg/mL. The same molecule returned an MBEC in data set [3] (setting [12]) of roughly 32 µg/mL. Also, the MIC (as a rule, the smallest concentration in the dilution series that meets the test's criterion for growth inhibition) in data set [4] (setting [13]) was 16 to 32 µg/mL; in data set [4] (A. baumannii BAA-1794, experiment shown in Figure S4) it was 32 µg/mL (≈ 7.12 µM); in [5] (setting [14]), 32 µg/mL (≈ 7.12 µM). Also, the “MIC across the tested strains” value in [6] (setting [15]) was 8 to 32 µg/mL.
For `CC[C@H](C)CCCCC(=O)N[C@@H](CCN)C(=O)N[C@H](C(=O)N[C@@H](CCN)C(=O)N[C@H]1CCNC(=O)[C@H]([C@@H](C)O)NC(=O)[C@H](CCN)NC(=O)[C@H](CCN)NC(=O)[C@H](CC(C)C)NC(=O)[C@@H](CC(C)C)NC(=O)[C@H](CCN)NC1=O)[C@@H](C)O` [colistin] (HELM PEPTIDE1{[CC[C@H](C)CCCCC(=O)[*:2]].[Dab].T.[Dab].[Dab].[Dab].[dL].L.[Dab].[Dab].T}$PEPTIDE1,PEPTIDE1,5:R3-11:R2$$$V2.0; N-terminus assumed; bridges inferred), the “MIC fold change reached, compared to the initial growth-inhibitory concentration” value in data set [7] (AB5075, exposure for 15 days) worked out at 512 × MIC. The molecule also returned an MIC before exposure in [7] (AB5075, initial MIC (passage 0)) of 0.5 µg/mL (≈ 0.428 µM). Further, in data set [7] (setting [16]), the “MIC after the fifth day of exposure” value was 64 µg/mL and the “MIC fold change after the fifth day” value is listed as 128 MIC fold.
As for FLKKIWKLLGKLL-NH2 [HRZN-16], the MIC in data set [4] (BAA-1794), in data set [8] (AB5075 (MRSN959)), in data set [5] (BAA-1710) and in [9] (BAA-1800) was 16 µg/mL each time. Further, the “MIC across the tested strains” value in [6] (BAA-1710) is on record as 16 µg/mL.
FLPWISKFLGKIL-NH2 [HRZN-15]: in data set [2] (BAA-1800, 24 h), the MBIC50 is listed as ~ 4 µg/mL. Moreover, in data set [2] (BAA-1800, 24 h), the MBIC100 was 8 µg/mL. In data set [7] (AB5075 passaged with peptide), the “MIC at the 10th passage” value came out at 8 µg/mL. The molecule further came in with an MBEC in data set [3] (24 h) of 16 µg/mL. This molecule gave an MBEC50 in [3] (24 h) of 8 µg/mL. In addition, the MIC in data set [4] (BAA-1794), in [5] (BAA-1710) and in data set [9] (BAA-1800) was 4 µg/mL each time. In addition, the “MIC across the tested strains” value in [6] (BAA-1710) is reported as 4 µg/mL.
For FLWRISKFLGKKL-NH2 [HRZN-13], the Hemolysis in data set [1] (100 µg/mL) came out at 0.7%. The MIC in data set [4] (setting [13]) is given as 64 µg/mL; in [8] (A. baumannii AB5075 (MRSN959), Difco Mueller Hinton broth, 5 × 10^5 CFU/mL, 37 °C 5% CO2, 20–24 h, OD600, n = 3), 32 µg/mL; in [5] (setting [14]) it was 32 µg/mL; in [9] (A. baumannii BAA-1800, Difco Mueller Hinton broth, 5 × 10^5 CFU/mL, 37 °C 5% CO2, 20–24 h, OD600, n = 3), 64 µg/mL. The “MIC across the tested strains” value in data set [6] (setting [15]) was in the range of 32 to 64 µg/mL.
Regarding FLWRISKFLGRKL-NH2 [HRZN-14], the figures for the MIC in [4] (BAA-1794), in [5] (BAA-1710) and in data set [9] (BAA-1800) were 64 µg/mL, 32 µg/mL and 32 µg/mL, respectively. In addition, the “MIC across the tested strains” value in [6] (BAA-1710) lay in the range of 16 to 64 µg/mL.
As for KLWKLLKKLGRLL-NH2 [HRZN-17], the MIC in data set [4] (BAA-1794), in data set [8] (AB5075 (MRSN959)), in data set [5] (BAA-1710) and in data set [9] (BAA-1800) was 32 µg/mL in each case. In addition, the “MIC across the tested strains” value in data set [6] (BAA-1710) is given as 32 µg/mL.
Regarding VRLIVAVRIWRR-NH2 [IDR-1018], the MBIC50 in [2] (setting [10]) is listed as ~ 32 µg/mL. In addition, in [2] (setting [11]), the MBIC100 is recorded as >64 * µg/mL. This molecule also returned an MBEC in data set [3] (setting [12]) greater than 32 µg/mL.
